In US6143764A, “Quinoline and quinazoline derivatives inhibiting platelet-derived growth factor receptor autophosphorylation and pharmaceutical compositions containing the same” (priority 1995, dated 2000):
pIC50: −log10 of the molar value. Read-outs that look alike come from different tables or passages of the source.

Assays:
[1] = system: L-27 (lung); test: Antitumor effect against L-27 lung tumor in nude mice; type: in vivo; conditions: 100 mg/kg intraperitoneally once a day, 9 days
Procedure: (§1) Human glioma, GLO7 (obtained from the Central Institute for Experimental Animals), was transplanted into nude mice. When the tumor had grown to a volume of about 100 mm^3, the nude mice were divided into several groups of 4 animals so as to equalize the average tumor volumes of each group. The test drug was administered orally to animals in experimental groups 2 times a day for 14 consecutive days at 100 mg/kg, and the vehicle was administered to control animals. The tumor growth inhibition rate (TGIR, %) was calculated from the equation: TGIR=(1-Tx/Cx)×100, in which Cx is the tumor volume in the control mice and Tx is the tumor volume in the drug-treated mice, on day X, when the initial tumor volume at the time treatment was commenced is set 1.
(§2) In the same manner as described in 2, various types of tumor cells (obtained from the Central Institute for Experimental Animals) were transplanted into nude mice. When the tumor had grown to a volume of about 100 mm^3, the animals were allocated to several groups each consisting of 4 animals so as to equalize the average tumor volume of each group. Test drugs were administered intraperitoneally to animals in experimental groups once a day for 9 consecutive days at 100 mg/kg, and the vehicle was administered to control animals.

[2] = system: COL-1 (colon); test: Antitumor effect against COL-1 colon tumor in nude mice; type: in vivo; conditions: 100 mg/kg intraperitoneally once a day, 9 days
Procedure: as §1, §2

[3] = system: St-4 (stomach); test: Antitumor effect against St-4 stomach tumor in nude mice; type: in vivo; conditions: 100 mg/kg intraperitoneally once a day, 9 days
Procedure: as §1, §2

[4] = system: human glioma (GLO7); test: Antitumor effect of the compounds against human glioma (GLO7), nude mice xenograft; type: in vivo; conditions: Mus musculus, po, 216 h, read-out: Tumor growth inhibition rate (TGIR)
Procedure: Analogously to 2, human glioma cells, GLO7 (obtained from the Central Institute for Experimental Animals), was transplanted into nude mice. When the tumor had grown to a volume of about 100 mm^3, the nude mice were divided into several groups of 4 animals so as to equalize the average tumor volumes of each group. The test drug was administered orally to animals in experimental groups once a day for 9 consecutive days at 50 mg/kg, and the vehicle was administered to control animals. The tumor growth inhibition rate (TGIR, %) was calculated from the equation: TGIR=(1-Tx/Cx)×100, in which Cx is the tumor volume in the control mice and Tx is the tumor volume in the drug-treated mice, on day X, when the initial tumor volume at the time treatment was commenced is set 1.

[5] = system: collagen-induced arthritis in mice; test: Effect on collagen-induced arthritis in mice; type: in vivo, mouse (DBA/lJNCrj); conditions: for Number of mice with arthritis/total mice: 16 days; for Incidence of collagen-induced arthritis: 16 days (vehicle 70)
[6] = system: mouse leukemia cells (P388); test: Antitumor effect against mouse leukemia cells (P388), survival of mice; type: in vivo; conditions: CDF1 mice, 100 mg/kg intraperitoneally, 9 consecutive days
Procedure: P388 cells (1×10^5 cells), mouse leukemia cells obtained from ATCC, were inoculated intraperitoneally into CDF1 mice (obtained from Japan SLC, Inc.), and then the test compound was administered intraperitoneally for 9 consecutive days at the dose of 100 mg/kg. The drug-treated animals survived longer than control animals by 130%.

[7] = target: T1, PDGF receptor (Rattus norvegicus, UniProt Q05030); test: PDGF receptor autophosphorylation inhibition in cultured rat mesangial cells; type: cell-based; conditions: PDGF-BB 50 ng/ml
T1 construct: cultured rat mesangial cells which are known to have the PDGF receptor; endogenous in cells; host or cells: primary mesangial cells cultured from glomeruli of Wistar-Kyoto rats (Charles River Japan), more than 5 passages
T1 sequence (Q05030 32-1097): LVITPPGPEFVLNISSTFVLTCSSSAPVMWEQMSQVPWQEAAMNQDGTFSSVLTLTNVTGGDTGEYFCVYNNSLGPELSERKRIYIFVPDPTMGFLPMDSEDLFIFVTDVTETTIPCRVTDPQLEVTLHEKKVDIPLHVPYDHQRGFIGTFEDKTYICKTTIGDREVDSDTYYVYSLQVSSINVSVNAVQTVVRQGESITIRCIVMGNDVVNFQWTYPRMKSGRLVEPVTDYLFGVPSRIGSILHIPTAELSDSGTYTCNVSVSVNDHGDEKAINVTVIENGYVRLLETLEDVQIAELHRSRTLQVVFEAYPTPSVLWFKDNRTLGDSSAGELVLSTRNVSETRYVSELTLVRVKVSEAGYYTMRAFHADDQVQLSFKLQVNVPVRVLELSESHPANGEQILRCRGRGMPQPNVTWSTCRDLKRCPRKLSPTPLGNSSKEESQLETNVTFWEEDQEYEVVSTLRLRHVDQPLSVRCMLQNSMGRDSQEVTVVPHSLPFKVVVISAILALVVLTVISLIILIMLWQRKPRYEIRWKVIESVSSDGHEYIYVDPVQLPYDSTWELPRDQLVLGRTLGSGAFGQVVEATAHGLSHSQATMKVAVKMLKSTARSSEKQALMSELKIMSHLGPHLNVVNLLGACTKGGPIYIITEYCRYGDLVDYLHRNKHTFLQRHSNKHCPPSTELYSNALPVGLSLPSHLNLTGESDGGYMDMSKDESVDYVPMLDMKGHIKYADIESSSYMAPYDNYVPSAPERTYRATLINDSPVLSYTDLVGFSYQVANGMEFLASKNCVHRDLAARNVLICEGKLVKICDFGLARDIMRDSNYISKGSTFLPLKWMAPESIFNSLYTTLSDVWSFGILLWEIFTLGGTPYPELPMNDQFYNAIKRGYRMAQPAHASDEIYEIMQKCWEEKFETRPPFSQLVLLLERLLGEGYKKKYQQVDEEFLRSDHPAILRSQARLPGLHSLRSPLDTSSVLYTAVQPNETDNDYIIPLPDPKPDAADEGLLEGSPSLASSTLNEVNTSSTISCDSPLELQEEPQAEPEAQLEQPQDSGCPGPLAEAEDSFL
Outline: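 Growth-arrested rat mesangial cells (>5 passages, 0.5% FCS for 3 days) preincubated with drug in 0.1% BSA medium for 1 h at 37° C., then stimulated with 50 ng/ml human PDGF-BB for 10 min. Phosphotyrosine Western blot of ~180 kDa receptor band by densitometry, normalized to PDGF-stimulated (100%) and unstimulated (0%) wells.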

[8] = system: human glioma cells (GLO7); test: Antitumor effect of compound number 43 against human glioma (GLO7), nude mice xenograft; type: in vivo; conditions: 100 mg/kg orally 2 times a day, 14 days, test period about 4 weeks
Procedure: as §1, with “1. During the test period of about 4 weeks, the maximum TGIR value was 76%, and thus an excellent antitumor effect was observed.” for “1.”

[9] = system: glomerulonephritis associated with mesangial cell growth in rats; test: Effect on nephritis associated with mesangial cell growth in rats (OX-7 induced glomerulonephritis); type: in vivo, Wistar-Kyoto rat; conditions: 8 days
Procedure: Effect on nephritis associated with mesangial cell growth in rats
Groups of 6 Wistar-Kyoto male rats (7 weeks old, purchased from Charles River Japan, Inc.) were used. OX-7 (prepared according to Pathol. Int., 45, 409 (1995)), a monoclonal antibody against anti-rat Thy1.1, was injected intravenously into the tails of rats at a dose of 1.2 mg/kg to induce glomerulonephritis associated with mesangial cell growth and extracellular matrix accumulation. A test drug suspended in a vehicle, a 1% aqueous cremophor solution, was administered orally 2 times a day starting one day after an OX-7 injection for 8 consecutive days. On day 9, when pathological changes in glomeruli became markedly apparent, the rats were sacrificed and anatomized under anesthesia with ether, and left kidneys were taken out and fixed in formalin. The kidneys were embedded in paraffin and then sectioned thinly, and the sections were stained with a periodic acid-Schiff's reagent. The 20 glomeruli were arbitrarily selected for individual specimens thus prepared, and pathological sclerotic changes were scored as follows:
Average scores for sclerotic change of individual specimens were calculated to quantify the degree of glomerular sclerosis. Average scores of glomerular sclerosis for individual specimens of rat groups administered with the drug were compared with those for control groups administered with the vehicle only to calculate glomerular sclerosis inhibition rates (%). The significance of differences was determined by the Dunnet method after testing homoscedasticity according to the Bartlett method.

[10] = nude mice, 50 mg/kg orally once a day, 9 days

COc1cccc(NC(=O)Nc2ccc(Oc3ccnc4cc(OC)c(OC)cc34)cc2)c1 [Compound 58]
Tumor growth inhibition rate (TGIR) [1]: 96%
Tumor growth inhibition rate (TGIR) [2]: 74%
Tumor growth inhibition rate (TGIR) [3]: 86%
inhibition in vivo at 50 mg/kg [4]: 57%

COc1ccc(NC(=O)Nc2ccc(Oc3ccnc4cc(OC)c(OC)cc34)cc2)cc1 [Compound 43, N-(4-Methoxyphenyl)-N'-{4-[(6,7-dimethoxy-4-quinolinyl)oxy]phenyl}urea]
Tumor growth inhibition rate (TGIR) [1]: 83%
Number of mice with arthritis/total mice ([5]; 10 mg/kg intraperitoneally): 1/9
Incidence of collagen-induced arthritis ([5]; 10 mg/kg intraperitoneally): 11%
Number of mice with arthritis/total mice ([5]; 100 mg/kg intraperitoneally): 0/10
Incidence of collagen-induced arthritis ([5]; 100 mg/kg intraperitoneally): 0%
prolonged survival: drug-treated animals survived longer than control animals by [6]: 130%
Tumor growth inhibition rate (TGIR) [2]: 68%
Tumor growth inhibition rate (TGIR) [3]: 78%
pIC50 [7]: 8.30
maximum tumor growth inhibition rate (TGIR) [8]: 76%

COc1cc2nccc(Oc3ccc(C(=O)c4ccc(C(C)(C)C)cc4)cc3)c2cc1OC [Compound 32, (4-t-Butylphenyl){4-[(6,7-dimethoxy-4-quinolyl)oxy]phenyl}methanone]
Glomerular sclerosis inhibition rate ([9]; 10 mg/kg oral 2 times a day, p < 0.05): 11.7%
Glomerular sclerosis inhibition rate ([9]; 30 mg/kg oral 2 times a day, p < 0.05): 10.2%
Glomerular sclerosis inhibition rate ([9]; 100 mg/kg oral 2 times a day, p < 0.01): 13.7%
pIC50 [7]: 6.52

CCOC(=O)NC(=O)Nc1ccc(Oc2ccnc3cc(OC)c(OC)cc23)cc1 [Compound 190, N-Ethoxycarbonyl-N'-{4-[(6,7-Dimethoxy-4-quinolyl)oxy]phenyl}urea]
pIC50 [7]: 7.68
inhibition in vivo at 50 mg/kg [4, 10]: 50%

COc1cc2nccc(Oc3ccc(NC(=O)Nc4cc(F)c(F)cc4F)cc3)c2cc1OC [Compound 255, N-(2,4,5-Trifluorophenyl)-N'-{4-[(6,7-dimethoxy-4-quinolyl)oxy]phenyl}urea]
pIC50 [7]: 7.82
inhibition in vivo at 50 mg/kg [4, 10]: 86%
